Results as given in PMC8237267 (Journal of Medicinal Chemistry, 2021).
pIC50: −log10 of the molar value.

Columns and labels:
[1] = system: MV4-11; assay: Cytotoxicity assay (Cell Titer-Blue, 72 h); format: cell-based; conditions: Homo sapiens; MV4-11 (AML); read-out: In cellulo IC50 MV4-11
[2] = system: MRC-9; assay: Cytotoxicity assay (Cell Titer-Blue, 72 h); format: cell-based; conditions: MRC9; MRC-9 (healthy fibroblasts); read-out: In cellulo IC50 MRC-9
[3] = system: MOLM-13; assay: Cytotoxicity assay (Cell Titer-Blue, 72 h); format: cell-based; conditions: Homo sapiens, AML, one representative of three experiments, read-out: IC50 (heat map) MOLM-13
[4] = system: KHYG-1; assay: Cytotoxicity assay (Cell Titer-Blue, 72 h); format: cell-based; conditions: ANKL, one representative of three experiments, read-out: IC50 (heat map) KHYG-1
[5] = system: NK-92; assay: Cytotoxicity assay (Cell Titer-Blue, 72 h); format: cell-based; conditions: NK92; LGL; one representative of three experiments; read-out: IC50 (heat map) NK-92
[6] = system: SNK6; assay: Cytotoxicity assay (Cell Titer-Blue, 72 h); format: cell-based; conditions: T/NK cell lymphoma, one representative of three experiments, read-out: IC50 (heat map) SNK6
[7] = system: DERL-2; assay: Cytotoxicity assay (Cell Titer-Blue, 72 h); format: cell-based; conditions: γδ T-NHL; one representative of three experiments; read-out: IC50 (heat map) DERL-2
[8] = system: Hut78; assay: Cytotoxicity assay (Cell Titer-Blue, 72 h); format: cell-based; conditions: Homo sapiens, CTCL, one representative of three experiments, read-out: IC50 (heat map) Hut78
Experimental: (§1) The PTCL cell lines, KHYG-1, NK-92, SNK6, DERL-2, Mac1, 1305 Myla, Hut78, SU-DHL-1 or T-ALL cell lines SUP-T11, DND-41, and MOLT4 were maintained in RPMI-1640 supplemented with 10% FBS, 0.06 g/L penicillin/0.1 g/L streptomycin (Pen/Strep, Gibco), and 2 mM L-glutamine (Gibco). Culture media of KHYG-1, NK-92, SNK6, and DERL-2 cells was additionally supplemented with 2.5 ng/mL recombinant human IL-2 (ImmunoTools GmbH, Germany). The authenticity of PTCL cell lines was confirmed by analysis of highly polymorphic short tandem repeat loci (STR) using the PowerPlex 16 HS System (Promega; performed by Microsynth AG, Switzerland).
(§2) Cells were plated in 96-well flat-bottom sterile culture plates with low-evaporation lids (Costar #3997). The inhibitors and a vehicle control (0.5% DMSO) were added to the cells following 24 h. After 72 h, Cell Titer-Blue (Promega #G808A) was added to each well (20 μL), and the fluorescence was measured at 560/590 nm using a Cytation S63 spectrophotometer (BioTek) or a GloMax Discover Microplate Reader (Promega, Madison, WI, USA). GraphPad Prism 6.0 (GraphPad Software Inc.) was used to determine the IC50 values.

[9] = system: Mac1; assay: Cytotoxicity assay (Cell Titer-Blue, 72 h); format: cell-based; conditions: ALK- ALCL; one representative of three experiments; read-out: IC50 (heat map) Mac1
Experimental: as §1, §2

[10] = system: Myla; assay: Cytotoxicity assay (Cell Titer-Blue, 72 h); format: cell-based; conditions: CTCL; one representative of three experiments; read-out: IC50 (heat map) Myla
[11] = system: SU-DHL-1; assay: Cytotoxicity assay (Cell Titer-Blue, 72 h); format: cell-based; conditions: Homo sapiens, ALK+ ALCL, one representative of three experiments, read-out: IC50 (heat map) SU-DHL-1
[12] = system: SUP-T11; assay: Cytotoxicity assay (Cell Titer-Blue, 72 h); format: cell-based; conditions: SUPT11; T-ALL/T-PLL like; one representative of three experiments; read-out: IC50 (heat map) SUP-T11
[13] = system: DND-41; assay: Cytotoxicity assay (Cell Titer-Blue, 72 h); format: cell-based; conditions: DND41; T-ALL; one representative of three experiments; read-out: IC50 (heat map) DND-41
[14] = system: MOLT4; assay: Cytotoxicity assay (Cell Titer-Blue, 72 h); format: cell-based; conditions: Homo sapiens, MOLT-4; T-ALL; one representative of three experiments; read-out: IC50 (heat map) MOLT4
[15] = system: NHF (normal human fibroblasts); assay: Cytotoxicity assay (Cell Titer-Blue, 72 h); format: cell-based; conditions: Fibroblast, read-out: Cellular IC50 NHF
[16] = system: HUVEC (primary human umbilical vein endothelial cells); assay: Cytotoxicity assay (Cell Titer-Blue, 72 h); format: cell-based; conditions: read-out: Cellular IC50 HUVEC
[17] = system: pPF (primary pooled fibroblasts from 250 donors); assay: Cytotoxicity assay (Cell Titer-Blue, 72 h); format: cell-based; conditions: Fibroblast, read-out: Cellular IC50 pPF
[18] = In vivo PK study in CD-1 male mice; conditions: mouse, plasma, CD-1 mice, IP, 20 mg/kg
[19] = system: MV4-11 cells; assay: FACS apoptosis detection assay (Annexin V/PI); format: cell-based; conditions: MV4-11, 18 h
Experimental: MV4-11 cells were prepared, dosed, and washed with cold 1× PBS. The resulting cell pellets were resuspended in 1× Binding Buffer (1 × 10^6 cell/mL) from the FITC Annexin V Apoptosis Detection Kit I (BD Pharmingen). Subsequently, the dyes annexin V (5 μL) and propidium iodide (PI, 5 μL) were added to 2.5 × 10^5 cells (250 μL). The suspension was thoroughly mixed and incubated in the dark for 15 min. Following the addition of 250 μL of 1× binding buffer, the cells were analyzed by flow cytometry within 1 h using the Cytoflex S system (Beckman Coulter).

[20] = system: acetylation of α-tubulin; assay: Immunofluorescence assay in HeLa cells; format: cell-based; conditions: 6 h, increasing doses
Experimental: HeLa cells were plated to subconfluency on a 96-well plate (clear bottom black from Fisher Scientific). As above, inhibitors were introduced following 24 h. The cells were washed with 1× PBS, fixed with 4% formaldehyde (Millipore Sigma), permeabilized with 1% Triton X-100 (Millipore Sigma), and blocked in 5% bovine serum albumin (BSA) (BioShop) for 1 h at room temperature. Following this treatment, the cells were incubated in a cocktail composed of acetylated α-tubulin mouse monoclonal (1:100 dilution, MD Millipore) and acetylated histone H3 (1:50 dilution, Ac-Lys18, Sigma) antibodies. Secondary antibodies anti-mouse Alexa Fluor 647 and anti-rabbit Alexa Fluor 488 were used for immunofluorescent detection. Cells were counterstained for nucleic acids using 4′,6-diamidino-2-phenylindole (DAPI) (ThermoFisher Scientific). The cells were imaged with a Cytation S63 spectrophotometer and the fluorescence intensity was determined using ImageJ (n = 3). Two-way ANOVA with Tukey’s multiple comparisons test were performed using GraphPad Prism 6.0 (GraphPad Software Inc.). A p-value ≤ 0.05 was considered significant.

[21] = system: acetylated histone H3; assay: Western blot in MV4-11 cells; format: cell-based; conditions: MV4-11, 6 h
Experimental: (§3) Briefly, MV4-11 cells were incubated with inhibitors prior to cell lysis with radioimmunoprecipitation assay (RIPA) buffer (20 mM Tris pH 7.4, 150 mM NaCl, 0.5% deoxycholate, 1% Triton X-100, and 0.1% sodium dodecyl sulfate (SDS)). Total protein content was determined through a BCA assay (ThermoFisher), resolved via a 4–20% polyacrylamide SDS gel, and transferred to a nitrocellulose membrane (Bio-Rad). The membranes were blocked with a 5% solution (skimmed milk powder in PBS-T). This was followed by incubation at 4 °C (overnight) with the following antibodies: acetylated α-tubulin mouse monoclonal (MABT868, EMD Millipore), acetylated histone H3 (Ac-Lys18, 07–354, Sigma), PARP-1 (ab227244, Abcam), apoptosis Western blot cocktail (136812, Abcam), cleaved PARP-1 (ab32561, Abcam), and HSC70 (sc-7298, Santa Cruz). Following overnight incubation, horseradish peroxidase (HRP)-conjugated goat anti-mouse IgG secondary antibody (7076, Cell Signaling) or HRP-linked anti-rabbit IgG secondary antibody (7074, Cell Signaling) was applied to the membrane in a 1:5000 dilution. The bands were visualized using clarity Western ECL substrate luminal/enhancer solution and peroxide solution. Western blotting analysis was carried out using Image lab software (Bio-Rad).[47],[50],[70]

[22] = system: cleavage of PARP-1 and Caspase-3; assay: Western blot of apoptosis markers in MV4-11 cells; format: cell-based; conditions: MV4-11, 6 h, 5 μM
Experimental: as §3

## O=C(CCCCCCNC(=O)c1cnc(N(c2ccccc2)c2ccccc2Cl)nc1)NO [Citarinostat]
[1]
  pIC50: 5.87
[2]
  pIC50: < 4.52
[3]
  pIC50: 5.70
[4]
  pIC50: 5.92
[5]
  pIC50: 5.71
[6]
  pIC50: 5.72
[7]
  pIC50: 5.99
[8]
  pIC50: 5.42
[9]
  pIC50: 5.75
[10]
  pIC50: 5.10
[11]
  pIC50: 5.33
[12]
  pIC50: 5.40
[13]
  pIC50: 5.71
[14]
  pIC50: 5.76
[15]
  pIC50: 5.24
[16]
  pIC50: 5.31
[17]
  pIC50: 5.13
[18]; read-out: In vivo AUClast (overall exposure)
  AUC(0-t): 4160 ng·h/mL
[18]; read-out: In vivo t1/2
  half-life: 15 min
[19]; 0.5 μM
  Early Apoptosis: 9%
[19]; 1 μM
  Late Apoptosis: 10%
[19]; 2 μM
  Healthy (nonapoptotic): 47%
[20]
  acetylation of α-tubulin (immunofluorescence): weaker acetylation as compared to KT-531
[21]
  acetylated histone H3 levels (Western blot): higher with citarinostat in comparison to KT-531
[22]
  cleavage of PARP-1 and Caspase-3: absence of cleaved Caspase-3 and PARP-1
